Experimental data taken from ChEMBL document CHEMBL1201862, “PubChem BioAssay data set” (2004).
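Tested at 5 concentrations; 48 h exposure; 96-well plates; endpoints linearly interpolated, else capped at highest concentration. At the GI50, growth is halved.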 Activity calls are given as the source filed them. Rule as the data show it: active = GI50 up to about 1.1 µM and inactive = higher.

Key:
Assay in all cases: NCI anticancer screen, dose series, 48 h
CAKI-1 = test system: CAKI-1
NCI/ADR-RES = test system: NCI/ADR-RES
OVCAR-3 = test system: OVCAR-3
HL-60 = test system: HL-60
786-0 = test system: 786-0
SK-MEL-2 = test system: SK-MEL-2
MDA-MB-231 = test system: MDA-MB-231
DU-145 = test system: DU-145
HCT-15 = test system: HCT-15
NCI-H226 = test system: NCI-H226
U-251 = test system: U-251
IGROV-1 = test system: IGROV-1
KM12 = test system: KM12
MDA-N = test system: MDA-N
OVCAR-4 = test system: OVCAR-4
HOP-92 = test system: HOP-92
LOX IMVI = test system: LOX IMVI
K562 = test system: K562
OVCAR-8 = test system: OVCAR-8
SF-539 = test system: SF-539

Row | SMILES | GI50 (CAKI-1) | GI50 (NCI/ADR-RES) | GI50 (OVCAR-3) | GI50 (HL-60) | GI50 (786-0) | GI50 (SK-MEL-2) | GI50 (MDA-MB-231) | GI50 (DU-145) | GI50 (HCT-15) | GI50 (NCI-H226) | GI50 (U-251) | GI50 (IGROV-1) | GI50 (KM12) | GI50 (MDA-N) | GI50 (OVCAR-4) | GI50 (HOP-92) | GI50 (LOX IMVI) | GI50 (K562) | GI50 (OVCAR-8) | GI50 (SF-539)
1 | NC(=S)N/N=C/c1c[nH]c2ccccc12 | > 100 µM (inactive) | > 100 µM (inactive) | > 100 µM (inactive) | 33.7 µM (inactive) | > 100 µM (inactive) | > 100 µM (inactive) | > 100 µM (inactive) | > 100 µM (inactive) | > 100 µM | > 100 µM (inactive) | > 100 µM (inactive) | > 100 µM (inactive) | > 100 µM (inactive) | > 100 µM (inactive) | > 100 µM (inactive) | 21.6 µM (inactive) | > 100 µM (inactive) | > 100 µM (inactive) | > 100 µM (inactive) | > 100 µM (inactive)
2 | COc1c(C)c2nc3ccccc3nc2c2c(O)ccnc12 | > 100 µM (inactive) | > 100 µM (inactive) | > 100 µM (inactive) | > 100 µM (inactive) | 16.9 µM (inactive) | > 100 µM (inactive) | > 100 µM (inactive) | 34 µM (inactive) | > 100 µM | > 100 µM (inactive) | 54.5 µM (inactive) | 43.3 µM (inactive) | > 100 µM (inactive) | > 100 µM (inactive) | > 100 µM (inactive) | 36.4 µM (inactive) | > 100 µM (inactive) | > 100 µM (inactive) | 50.5 µM (inactive) | 54.2 µM (inactive)
3 | O=C(NC(=S)Nc1ccc2c(c1)Sc1ccccc1O2)c1ccc([N+](=O)[O-])cc1 | > 100 µM (inactive) | > 100 µM (inactive) | > 100 µM (inactive) | > 100 µM (inactive) | > 100 µM (inactive) | > 100 µM (inactive) | > 100 µM (inactive) | > 100 µM (inactive) | > 100 µM | > 100 µM (inactive) | > 100 µM (inactive) | > 100 µM (inactive) | > 100 µM (inactive) | > 100 µM (inactive) | > 100 µM (inactive) | > 100 µM (inactive) | > 100 µM (inactive) | > 100 µM (inactive) | > 100 µM (inactive) | > 100 µM (inactive)
4 | C/C(=N\NC(=N)N)C(CN(C)C)C(c1ccccc1)c1c(O)c2ccccc2oc1=O (stereo not given) | > 100 µM (inactive) | > 100 µM (inactive) | > 100 µM (inactive) | > 100 µM (inactive) | > 100 µM (inactive) | > 100 µM (inactive) | > 100 µM (inactive) | > 100 µM (inactive) | > 100 µM | > 100 µM (inactive) | > 100 µM (inactive) | > 100 µM (inactive) | > 100 µM (inactive) | > 100 µM (inactive) | > 100 µM (inactive) | 4.91 µM (inactive) | > 100 µM (inactive) | > 100 µM (inactive) | > 100 µM (inactive) | > 100 µM (inactive)
5 | CN1CCc2c(sc3ncn(N)c(=N)c23)C1 | > 100 µM (inactive) | > 100 µM (inactive) | > 100 µM (inactive) | > 100 µM (inactive) | > 100 µM (inactive) | 61.2 µM (inactive) | > 100 µM (inactive) | > 100 µM (inactive) | > 100 µM | 78.9 µM (inactive) | > 100 µM (inactive) | > 100 µM (inactive) | > 100 µM (inactive) | > 100 µM (inactive) | > 100 µM (inactive) | > 100 µM (inactive) | > 100 µM (inactive) | > 100 µM (inactive) | > 100 µM (inactive) | > 100 µM (inactive)
6 | COc1ccc2[nH]cc(C=C3C(=O)NC(=S)NC3=O)c2c1 | > 100 µM (inactive) | > 100 µM (inactive) | > 100 µM (inactive) | > 100 µM (inactive) | 31.6 µM (inactive) | 92.3 µM (inactive) | 48.6 µM (inactive) | > 100 µM (inactive) | > 100 µM | > 100 µM (inactive) | 24.2 µM (inactive) | > 100 µM (inactive) | > 100 µM (inactive) | > 100 µM (inactive) | > 100 µM (inactive) | 73.6 µM (inactive) | > 100 µM (inactive) | > 100 µM (inactive) | 36.6 µM (inactive) | > 100 µM (inactive)
7 | CC(C)=CCc1ccc2[nH]c3c(c2c1)C(=O)C(=O)C(C)=C3C(O)C(C)O (stereo not given) | 4.38 µM (inactive) | 15.1 µM (inactive) | 2.96 µM (inactive) | 0.769 µM (active) | 1.87 µM (inactive) | 8.2 µM (inactive) | 3.54 µM (inactive) | 10.5 µM (inactive) | 2.32 µM | 15.1 µM (inactive) | 6.03 µM (inactive) | 2.36 µM (inactive) | 16.5 µM (inactive) | 3.06 µM (inactive) | 3.72 µM (inactive) | 1.51 µM (inactive) | 2 µM (inactive) | 2.07 µM (inactive) | 2.13 µM (inactive) | 5.98 µM (inactive)
8 | CS(C)(=O)=N/C=C\C(=O)C(Cl)(Cl)Cl | > 100 µM (inactive) | > 100 µM (inactive) | > 100 µM (inactive) | > 100 µM (inactive) | > 100 µM (inactive) | 46.8 µM (inactive) | > 100 µM (inactive) | > 100 µM (inactive) | > 100 µM | > 100 µM (inactive) | 79.1 µM (inactive) | 93.5 µM (inactive) | > 100 µM (inactive) | 65.2 µM (inactive) | > 100 µM (inactive) | > 100 µM (inactive) | > 100 µM (inactive) | > 100 µM (inactive) | > 100 µM (inactive) | > 100 µM (inactive)
9 | CCOC(=O)c1ncn(CCc2ccc(Cl)cc2)c1C | 80.2 µM (inactive) | 70.8 µM (inactive) | > 100 µM (inactive) | > 100 µM (inactive) | > 100 µM (inactive) | > 100 µM (inactive) | > 100 µM (inactive) | > 100 µM (inactive) | > 100 µM | > 100 µM (inactive) | > 100 µM (inactive) | > 100 µM (inactive) | > 100 µM (inactive) | 80.5 µM (inactive) | 56.6 µM (inactive) | > 100 µM (inactive) | > 100 µM (inactive) | > 100 µM (inactive) | > 100 µM (inactive) | > 100 µM (inactive)
10 | O=C(/C=c1\oc(=O)/c(=C/C(=O)c2ccc(Cl)cc2)oc1=O)c1ccc(Cl)cc1 | > 100 µM (inactive) | > 100 µM (inactive) | 49.9 µM (inactive) | > 100 µM (inactive) | > 100 µM (inactive) | > 100 µM (inactive) | > 100 µM (inactive) | > 100 µM (inactive) | 98.2 µM | > 100 µM (inactive) | > 100 µM (inactive) | 63.4 µM (inactive) | > 100 µM (inactive) | > 100 µM (inactive) | 39.6 µM (inactive) | 43.1 µM (inactive) | 48.4 µM (inactive) | > 100 µM (inactive) | > 100 µM (inactive) | > 100 µM (inactive)
11 | CC(=O)OCC(C)C1=C(O)C(=O)C2(C)C/C=C(/C)CC/C=C(\C)CCC(O)C(C)CCC12 (stereo not given) | 17.3 µM (inactive) | 21.1 µM (inactive) | 15.1 µM (inactive) | 17.5 µM (inactive) | 16.9 µM (inactive) | 20.7 µM (inactive) | 16.3 µM (inactive) | 17.9 µM (inactive) | 17.6 µM | 17.6 µM (inactive) | 17 µM (inactive) | 15.2 µM (inactive) | 14.2 µM (inactive) | 17 µM (inactive) | 17.5 µM (inactive) | 18 µM (inactive) | 18.1 µM (inactive) | 14.1 µM (inactive) | 18.1 µM (inactive) | 16.3 µM (inactive)
12 | CC(=O)OC1CC2c3cccc4c3C(CC2N(C)C1=O)CN4C(=O)c1ccccc1 (stereo not given) | 23 µM (inactive) | 20.6 µM (inactive) | 13.8 µM (inactive) | 15.2 µM (inactive) | 15.2 µM (inactive) | 20.5 µM (inactive) | 12.6 µM (inactive) | 16.6 µM (inactive) | 14.5 µM | 20.7 µM (inactive) | 15.7 µM (inactive) | 14.6 µM (inactive) | 21.3 µM (inactive) | 21.7 µM (inactive) | 22.1 µM (inactive) | 4.25 µM (inactive) | 12.1 µM (inactive) | 27.5 µM (inactive) | 16.4 µM (inactive) | 25.8 µM (inactive)
13 | CCOC(=O)/C=C(/C(=O)OCC)n1ccc(=O)[nH]c1=O | 0.938 µM (active) | 15.5 µM (inactive) | 3.59 µM (inactive) | 1.78 µM (inactive) | 3.36 µM (inactive) | 15.8 µM (inactive) | 10.8 µM (inactive) | 15.5 µM (inactive) | 3.08 µM | 6 µM (inactive) | 13.5 µM (inactive) | 15.2 µM (inactive) | 17.6 µM (inactive) | 10.8 µM (inactive) | 8.61 µM (inactive) | 2.07 µM (inactive) | 7.48 µM (inactive) | 2.23 µM (inactive) | 13 µM (inactive) | 18.9 µM (inactive)
14 | COc1ccc(C(CC(=O)c2ccc3c(c2)OCO3)c2c(O)oc3ccccc3c2=O)cc1OC (stereo not given) | > 100 µM (inactive) | > 100 µM (inactive) | 82.8 µM (inactive) | > 100 µM (inactive) | > 100 µM (inactive) | > 100 µM (inactive) | > 100 µM (inactive) | > 100 µM (inactive) | > 100 µM | > 100 µM (inactive) | > 100 µM (inactive) | > 100 µM (inactive) | > 100 µM (inactive) | > 100 µM (inactive) | 61.8 µM (inactive) | 38.5 µM (inactive) | 66.5 µM (inactive) | 63.5 µM (inactive) | > 100 µM (inactive) | > 100 µM (inactive)
